The target in assay [1] is T1, Beta-secretase 1 (Homo sapiens, UniProt P56817). The experiment in a line: Inhibition of BACE1 (unknown origin) after 90 mins by fluorescence assay. The note with it: for pIC50: read-out: IC50.
Assay [2] addresses T1, Beta-secretase 1. The experiment in a line: Inhibition of BACE1 (unknown origin) at 10 uM after 90 mins by fluorescence assay.

Each structure is given as a SMILES string. pIC50: −log10 of the molar value. Calls of active or inactive are those of the source. The calls are words filed in the database; no cut-off is given here. Numbered stars: 1 amine (or outer) side, 2 acyl side, 3 side chain; on linkers, the order of the positions; unused ones are H or OH. Square brackets hold non-standard residues; d marks the D form. Peptide text beside a SMILES is read from it. * marks the point of attachment. Ahppa(3S,4S) = O=C(C[C@H](O)[C@H](Cc1ccccc1)N[*:1])[*:2]; dNMeF = CN[C@H](Cc1ccccc1)C(=O)O; NMeQ = CN[C@@H](CCC(N)=O)C(=O)O; Cbz = O=C(OCc1ccccc1)*; Lac = C[C@H](O)C(=O)O

T1 sequence (P56817 whole entry): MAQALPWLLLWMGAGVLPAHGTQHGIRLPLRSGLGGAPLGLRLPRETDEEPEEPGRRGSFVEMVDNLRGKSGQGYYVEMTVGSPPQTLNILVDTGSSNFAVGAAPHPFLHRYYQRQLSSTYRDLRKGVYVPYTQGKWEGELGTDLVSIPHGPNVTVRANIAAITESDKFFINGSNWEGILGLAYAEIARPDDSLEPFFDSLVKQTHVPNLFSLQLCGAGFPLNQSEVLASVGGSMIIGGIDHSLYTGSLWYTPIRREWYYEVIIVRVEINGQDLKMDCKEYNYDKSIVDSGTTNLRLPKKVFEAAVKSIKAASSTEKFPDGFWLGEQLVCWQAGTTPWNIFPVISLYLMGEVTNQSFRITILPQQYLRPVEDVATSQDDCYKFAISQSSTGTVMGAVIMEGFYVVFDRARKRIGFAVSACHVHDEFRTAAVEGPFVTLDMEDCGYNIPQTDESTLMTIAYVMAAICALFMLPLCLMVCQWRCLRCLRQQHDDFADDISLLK

In the case of `CC(C)C[C@H](NC(=O)C[C@H](O)[C@H](Cc1ccccc1)NC(=O)c1cccc(C(=O)N2CCCC2=O)c1)C(=O)N[C@@H](C)C(=O)N(C)[C@H](Cc1ccccc1)C(=O)OCc1ccccc1`, the pIC50 at Beta-secretase 1 [1] was below 5.00. Further, the inhibition against Beta-secretase 1 [2] was found to be 28.4%.
Turning to `COC(=O)[C@H](CC(C)C)NC(=O)C[C@H](O)[C@H](Cc1ccccc1)NC(=O)[C@H](CCC(N)=O)N(C)C(=O)[C@@H](NC(=O)OCc1ccccc1)C(C)C`, at Beta-secretase 1 [1], the pIC50 was 5.35. Further, the inhibition at Beta-secretase 1 [2] was determined as 75%.
The matching figures for `CC(C)C[C@H](NC(=O)C[C@H](O)[C@H](Cc1ccccc1)NC(=O)c1cccc(C(=O)N2CCCC2=O)c1)C(=O)N[C@@H](C)C(=O)N(C)[C@H](Cc1ccccc1)C(=O)O`: below 5.00 and 35.1%.
For `COC(=O)[C@H](C)NC(=O)[C@H](CC(C)C)NC(=O)C[C@H](O)[C@H](Cc1ccccc1)NC(=O)OC(C)(C)C` the same measures were below 5.00 and 11.6%.
Turning to `COC(=O)[C@@H](Cc1ccccc1)N(C)C(=O)[C@H](C)NC(=O)[C@H](CC(C)C)NC(=O)C[C@H](O)[C@H](Cc1ccccc1)NC(=O)[C@H](CCC(N)=O)N(C)C(=O)OCc1ccccc1`, the pIC50 at Beta-secretase 1 [1] was below 5.00. Further, on Beta-secretase 1 [2], the inhibition is 49.5%.
With `CC(C)C[C@H](NC(=O)C[C@H](O)[C@H](Cc1ccccc1)NC(=O)OC(C)(C)C)C(=O)N[C@@H](C)C(=O)N(C)[C@H](Cc1ccccc1)C(=O)O`, at Beta-secretase 1 [1], the pIC50 was below 5.00. The same compound had an inhibition against Beta-secretase 1 [2] of 41.7%.
The matching figures for `CCCN(CCC)C(=O)c1cccc(C(=O)N[C@@H](Cc2ccccc2)[C@@H](O)CC(=O)N[C@@H](CC(C)C)C(=O)N[C@@H](C)C(=O)N(C)[C@H](Cc2ccccc2)C(=O)OCc2ccccc2)c1`: 6.00 and 89.4%.
Turning to `CC(C)C[C@H](NC(=O)C[C@H](O)[C@H](Cc1ccccc1)NC(=O)[C@@H](N)Cc1cc2ccccc2[nH]1)C(=O)N[C@@H](C)C(=O)N(C)[C@H](Cc1ccccc1)C(=O)OCc1ccccc1`, the pIC50 at Beta-secretase 1 [1] was below 5.00. This compound also registered an inhibition at Beta-secretase 1 [2] of 33.9%.
For `COC(=O)[C@H](C)NC(=O)[C@H](CC(C)C)NC(=O)C[C@H](O)[C@H](Cc1ccccc1)NC(=O)[C@H](CCC(N)=O)N(C)C(=O)[C@@H](NC(=O)OCc1ccccc1)C(C)C` (Cbz-V[NMeQ][Ahppa(3S,4S)]LA-OMe) the same measures were 5.58 and 90.6%.
`COC(=O)[C@H](CC(C)C)NC(=O)C[C@H](O)[C@H](Cc1ccccc1)NC(=O)[C@H](CCC(N)=O)N(C)C(=O)OCc1ccccc1`: at Beta-secretase 1 [1], the pIC50 is below 5.00. In addition, the inhibition against Beta-secretase 1 [2] stood at 24.2%.
For `CCCN(CCC)C(=O)c1cccc(C(=O)N[C@@H](Cc2ccccc2)[C@@H](O)CC(=O)N[C@@H](CC(C)C)C(=O)N[C@@H](C)C(=O)N(C)[C@H](Cc2ccccc2)C(=O)O)c1` the same measures were 6.32 and 97.2%.
For `COC(=O)C[C@H](O)[C@H](Cc1ccccc1)NC(=O)[C@H](CCC(N)=O)N(C)C(=O)[C@@H](NC(=O)OCc1ccccc1)C(C)C`, the pIC50 on Beta-secretase 1 [1] is below 5.00. The inhibition against Beta-secretase 1 [2] is 22.1%.
As to `COC(=O)[C@@H](Cc1ccccc1)N(C)C(=O)[C@H](C)NC(=O)[C@H](CC(C)C)NC(=O)C[C@H](O)[C@H](Cc1ccccc1)NC(=O)[C@H](CCC(N)=O)N(C)C(=O)[C@@H](NC(=O)OCc1ccccc1)C(C)C`, the negative logarithm of the IC50 (pIC50) at Beta-secretase 1 [1] was 6.06. At Beta-secretase 1 [2], this compound came in with an inhibition of 97%.
As for `COC(=O)C[C@H](O)[C@H](Cc1ccccc1)NC(=O)[C@H](CCC(N)=O)N(C)C(=O)OCc1ccccc1`, the IC50 result at Beta-secretase 1 [1] is listed as “Not Active”. Moreover, the inhibition entry on Beta-secretase 1 [2] is “inactive”.
Turning to `COC(=O)[C@H](CC(C)C)NC(=O)C[C@H](O)[C@H](Cc1ccccc1)NC(=O)OC(C)(C)C`, the pIC50 at Beta-secretase 1 [1] is below 5.00. This compound also showed an inhibition at Beta-secretase 1 [2] of 25.8%.
For `CCCN(CCC)C(=O)c1cccc(C(=O)N[C@@H](Cc2ccccc2)[C@@H](O)CC(=O)N[C@@H](CC(C)C)C(=O)N[C@@H](C)C(=O)N(C)[C@H](Cc2ccccc2)C(=O)O)n1` the same measures were below 5.00 and 35%.
On to `CC(C)C[C@H](NC(=O)C[C@H](O)[C@H](Cc1ccccc1)NC(=O)[C@H](CCC(N)=O)N(C)C(=O)[C@@H](NC(=O)[C@H](C)O)C(C)C)C(=O)N[C@@H](C)C(=O)N(C)[C@H](Cc1ccccc1)C(=O)O` (H-[Lac]V[NMeQ][Ahppa(3S,4S)]LA[dNMeF]-OH), for which, at Beta-secretase 1 [1], the pIC50 is 7.11.
For the compound `COC(=O)[C@H](C)NC(=O)[C@H](CC(C)C)NC(=O)C[C@H](O)[C@H](Cc1ccccc1)NC(=O)[C@H](CCC(N)=O)N(C)C(=O)OCc1ccccc1`, at Beta-secretase 1 [1], the pIC50 is below 5.00. The compound further displayed an inhibition against Beta-secretase 1 [2] of 17.5%.
The matching figures for `CCCN(CCC)C(=O)c1cccc(C(=O)N[C@@H](Cc2ccccc2)[C@@H](O)CC(=O)N[C@@H](CC(C)C)C(=O)N[C@@H](C)C(=O)N(C)[C@H](Cc2ccccc2)C(=O)OCc2ccccc2)n1`: below 5.00 and 28.7%.
For `CC(C)C[C@H](NC(=O)C[C@H](O)[C@H](Cc1ccccc1)NC(=O)OC(C)(C)C)C(=O)N[C@@H](C)C(=O)N(C)[C@H](Cc1ccccc1)C(=O)OCc1ccccc1` the same measures were below 5.00 and 4.44%.
